The record followed here is patent US6916812B2, “Alpha-aminoamide derivatives as melanocortin agonists” (Bristol-Myers Squibb Company, priority 2001, dated 2005).

Molecules are shown by their SMILES. Like-named read-outs stand apart in the source and are kept apart here.

For this experiment, the target named is T1, cloned human MC4R (Homo sapiens, UniProt P32245).
T1 construct: made in house; host or cells: Hi5 insect cells (baculovirus infection); membrane preparation
Kind of experiment: Membrane binding assay: competitive inhibition of [125I]NDP-α-MSH binding. The settings on record: for inhibition at 10 µM: read-out: Displacement Rate (%) (at 10 μM); for IC50: read-out: MC4R IC50. The method, then: Hi5 cells are infected using the following protocol: Cells at a density of 1×10^6 cells/mL are spun down at 1000 rpm (Beckman GS-6KR centrifuge) for 10 minutes. Cells are resuspended in 10% of their original volume in a sterile 50 mL conical centrifuge tube wrapped with aluminum foil. Virus is added at a Multiplicity of Infection (MOI) of 3 and incubated for 1 hour at room temperature with gentle shaking. […] Cells are spun down in 50 mL conical centrifuge tubes at 1000 rpm for 10 minutes. Each of the resulting pellets are resuspended in 10 mL of cold (4° C.) membrane buffer (25 mM HEPES, pH 7.4, 140 mM NaCl, 1.2 mM MgCl2, 2.5 mM CaCl2, 10 μG/mL Aprotinin, 10 μG/mL Leupeptin) and Dounce homogenized using 10-12 strokes. […] The resulting pellet is resuspended in cold membrane buffer in a total of ¼ of the original volume by vortexing and aspiration using a syringe and 27 gauge needle. Protein content is determined (Bradford, Bio-Rad Protein Assay). Membranes are aliquoted in microcentrifuge tubes and quick frozen in liquid nitrogen. Store at −80° C. until use. The membrane binding buffer is composed of 25 mM HEPES, pH 7.4, 140 mM NaCl, 1.2 mM MgCl2, 2.5 mM CaCl2, 0.1% BSA. […] The mixture is filtered with Brandel Microplate 96 filter apparatus using 96-well GF/B filter presoaked in 1-% polyethyleneimine (Sigma). The filter is washed (4 times with a total of 1 mL per well) with cold wash buffer consisting of 20 mM HEPES, pH 7.4, 5 mM MgCl2. […] 100 μl of Wallac Optiphase Supermix scintillation fluid is added to each well. The top is sealed and the plates are shaken to insure that the filters are thoroughly soaked with fluid. […] Dose-response curves are fitted by […] analyses and IC50 values are calculated using ExcelFit.

The mark [1] stands for this setting: at 10 μM, [125I]NDP-α-MSH displacement.

T1 sequence (P32245 whole entry): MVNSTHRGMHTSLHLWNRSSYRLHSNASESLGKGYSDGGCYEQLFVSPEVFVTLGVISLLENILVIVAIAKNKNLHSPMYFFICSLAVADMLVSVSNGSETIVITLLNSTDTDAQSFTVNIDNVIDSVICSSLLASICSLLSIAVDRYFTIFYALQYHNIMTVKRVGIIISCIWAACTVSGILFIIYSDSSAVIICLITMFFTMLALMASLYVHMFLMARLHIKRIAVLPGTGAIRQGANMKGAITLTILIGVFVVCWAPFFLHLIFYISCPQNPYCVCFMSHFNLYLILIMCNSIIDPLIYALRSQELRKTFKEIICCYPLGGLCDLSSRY

Regarding `N[C@@H](Cc1ccc(OCc2ccccc2)cc1)C(=O)N1CCN(Cc2ccc(-c3ccccc3)cc2)CC1` [Example 95], the IC50 was under 1500 nM. Moreover, the inhibition at 10 µM under setting [1] fell in the range of 91 to 100%.

As to `COc1cc(CN2CCCN(C(=O)[C@@H](N)Cc3ccc(OCc4ccccc4)cc3)CC2)cc(Br)c1OC` [Example 59], the IC50 is over 3000 nM. Also, the inhibition at 10 µM under setting [1] was 35 to 70%.

On to `N[C@@H](Cc1ccc(OCc2ccccc2)cc1)C(=O)N1CCN(Cc2cc([N+](=O)[O-])ccc2Cl)CC1` [Example 134], for which the inhibition at 10 µM is 35 to 70% and the IC50 was in the range of 1500 to 3000 nM.

In the case of `CCOc1ccccc1CN1CCN(C(=O)[C@@H](N)Cc2ccc(OCc3ccccc3)cc2)CC1` [Example 116], the IC50 was 1500 to 3000 nM. For the same molecule, the inhibition at 10 µM under setting [1] lay within 71 to 90%.

On to `N[C@@H](Cc1ccc(OCc2ccc(F)cc2)cc1)C(=O)N1CCN(Cc2cccc(Cl)c2Cl)CC1` [Example 188], for which the half-inhibitory concentration (IC50) was under 1500 nM. Besides, under setting [1], the “Displacement Rate (%) (at 10 μM)” value is recorded as “+++ (+++ = 91-100)”.

For `N[C@@H](Cc1ccc(OCCc2ccccc2)cc1)C(=O)N1CCN(Cc2cccc(Cl)c2Cl)CC1` [Example 238], the half-inhibitory concentration (IC50) was under 1500 nM. Besides, the “Displacement Rate (%) (at 10 μM)” value under setting [1] is recorded as “+++ (+++ = 91-100)”.

Consider `Cc1ccccc1Oc1ccc(C[C@H](N)C(=O)N2CCN(Cc3cccc(Cl)c3Cl)CC2)cc1` [Example 348], for which the IC50 is 1500 to 3000 nM.

In the case of `CCCCCCCN1CCN(C(=O)[C@@H](N)Cc2ccc(OCc3ccccc3)cc2)CC1` [Example 122], the IC50 was 1500 to 3000 nM. Further, under setting [1], the inhibition at 10 µM lay within 71 to 90%.

For `COc1ccc(CC(C)N2CCCN(C(=O)[C@@H](N)Cc3ccc(OCc4ccccc4)cc3)CC2)cc1` (stereo partly shown) [Example 67], the IC50 is over 3000 nM. For the same molecule, the inhibition at 10 µM under setting [1] was 35 to 70%.

On to `N[C@@H](Cc1ccc(-c2cccc(F)c2)cc1)C(=O)N1CCN(Cc2cccc(Cl)c2Cl)CC1` [Example 311], for which the IC50 is under 1500 nM. Under setting [1], the inhibition at 10 µM fell in the range of 91 to 100%.

With `COc1ccc(Cl)cc1-c1ccc(C[C@H](N)C(=O)N2CCN(Cc3cccc(Cl)c3Cl)CC2)cc1` [Example 327], the IC50 is 1500 to 3000 nM. Under setting [1], the “Displacement Rate (%) (at 10 μM)” value is on record as “+++ (+++ = 91-100)”.

Take `N[C@@H](Cc1ccc(-c2ccccc2F)cc1)C(=O)N1CCN(Cc2cccc(Cl)c2Cl)CC1` [Example 309]: the IC50 was under 1500 nM. Moreover, the inhibition at 10 µM under setting [1] lay within 91 to 100%.

`CC(C)c1ccc(COc2ccc(C[C@H](N)C(=O)N3CCN(Cc4cccc(Cl)c4Cl)CC3)cc2)cc1` [Example 195]: the IC50 is under 1500 nM. Moreover, under setting [1], the “Displacement Rate (%) (at 10 μM)” value is listed as “+++ (+++ = 91-100)”.

Take `COc1cccc(CC(C)N2CCCN(C(=O)[C@@H](N)Cc3ccc(OCc4ccccc4)cc3)CC2)c1` (stereo partly shown) [Example 63]: the IC50 was over 3000 nM. The inhibition at 10 µM under setting [1] lay within 35 to 70%.

Take `N[C@@H](Cc1ccc(OCc2ccccc2)cc1)C(=O)N1CCCN(Cc2ccc(C(F)(F)F)cc2F)CC1` [Example 28]: the IC50 is over 3000 nM. In addition, the inhibition at 10 µM under setting [1] lay within 71 to 90%.

As to `N[C@@H](Cc1ccc(OCc2ccccc2)cc1)C(=O)N1CCCN(C2CCc3ccccc3C2)CC1` (stereo partly shown) [Example 30], the inhibition at 10 µM was in the range of 71 to 90% and the IC50 was over 3000 nM.

Turning to `N[C@@H](Cc1ccc(OCc2ccccc2)cc1)C(=O)N1CCCN(Cc2ccccc2)CC1` [Example 60], the IC50 is over 3000 nM. Besides, the inhibition at 10 µM under setting [1] lay in the range of 35 to 70%.

Take `N[C@@H](Cc1ccc(OCc2ccccc2)cc1)C(=O)N1CCN(CC(c2ccccc2)c2ccccc2)CC1` [Example 102]: the IC50 lay within 1500 to 3000 nM. Further, the inhibition at 10 µM under setting [1] was 91 to 100%.

For `COc1cc(CN2CCN(C(=O)[C@@H](N)Cc3ccc(OCc4ccccc4)cc3)CC2)cc(Br)c1OC` [Example 121], the IC50 fell in the range of 1500 to 3000 nM. The inhibition at 10 µM under setting [1] was 71 to 90%.

Consider `CCc1ccc(CN2CCCN(C(=O)[C@@H](N)Cc3ccc(OCc4ccccc4)cc3)CC2)cc1` [Example 38], for which the 50% inhibitory concentration (IC50) is over 3000 nM. Further, under setting [1], the inhibition at 10 µM lay within 71 to 90%.

`CC(C)(C)c1cc(CN2CCN(C(=O)[C@@H](N)Cc3ccc(OCc4ccccc4)cc3)CC2)cc(C(C)(C)C)c1O` [Example 92]: the IC50 was under 1500 nM. Moreover, under setting [1], the inhibition at 10 µM lay in the range of 91 to 100%.

Turning to `O=C([C@H](Cc1ccc(OCc2ccccc2)cc1)NCCCN1CCOCC1)N1CCN(Cc2cccc(Cl)c2Cl)CC1` [Example 173], the IC50 is under 1500 nM. Besides, the inhibition at 10 µM under setting [1] was in the range of 91 to 100%.

On to `N[C@@H](Cc1ccc(-c2cccc(Cl)c2)cc1)C(=O)N1CCN(Cc2cccc(Cl)c2Cl)CC1` [Example 301], for which the 50% inhibitory concentration (IC50) is under 1500 nM. Further, under setting [1], the inhibition at 10 µM was in the range of 91 to 100%.

In the case of `CCn1c2ccccc2c2cc(CN3CCN(C(=O)[C@@H](N)Cc4ccc(OCc5ccccc5)cc4)CC3)ccc21` [Example 89], the IC50 is under 1500 nM. The inhibition at 10 µM under setting [1] is 91 to 100%.

Consider `CC(C)(C)c1ccc(CN2CCCN(C(=O)[C@@H](N)Cc3ccc(OCc4ccccc4)cc3)CC2)cc1` [Example 39], for which the IC50 lay within 1500 to 3000 nM. Besides, the inhibition at 10 µM under setting [1] fell in the range of 71 to 90%.

Turning to `Cc1ccc(C)c(CN2CCN(C(=O)[C@@H](N)Cc3ccc(OCc4ccccc4)cc3)CC2)c1` [Example 107], the IC50 was 1500 to 3000 nM. Besides, the inhibition at 10 µM under setting [1] lay within 71 to 90%.

For the molecule `COc1cccc(-c2ccc(C[C@H](N)C(=O)N3CCN(Cc4cccc(Cl)c4Cl)CC3)cc2)c1` [Example 325], the IC50 lay in the range of 1500 to 3000 nM. The inhibition at 10 µM under setting [1] fell in the range of 71 to 90%.

Consider `COc1ccc(-c2ccc(C[C@H](N)C(=O)N3CCN(Cc4cccc(Cl)c4Cl)CC3)cc2)cc1` [Example 317], for which the IC50 fell in the range of 1500 to 3000 nM. The inhibition at 10 µM under setting [1] was in the range of 91 to 100%.

In the case of `COc1ccc(-c2ccc(C[C@H](N)C(=O)N3CCN(Cc4cccc(Cl)c4Cl)CC3)cc2)c(OC)c1` [Example 322], the IC50 fell in the range of 1500 to 3000 nM. For the same molecule, under setting [1], the “Displacement Rate (%) (at 10 μM)” value is “++ (++ = 71-90)”.

Regarding `N[C@@H](Cc1ccc(-c2c(Cl)cccc2Cl)cc1)C(=O)N1CCN(Cc2cccc(Cl)c2Cl)CC1` [Example 324], the IC50 lay in the range of 1500 to 3000 nM. Besides, the inhibition at 10 µM under setting [1] fell in the range of 91 to 100%.

`CC(C)(C)c1ccc(Oc2cccc(CN3CCN(C(=O)[C@@H](N)Cc4ccc(OCc5ccccc5)cc4)CC3)c2)cc1` [Example 80]: the IC50 was under 1500 nM. Also, under setting [1], the inhibition at 10 µM is 91 to 100%.

In the case of `N[C@@H](Cc1ccc(-c2ccsc2)cc1)C(=O)N1CCN(Cc2cccc(Cl)c2Cl)CC1` [Example 339], the inhibition at 10 µM lay in the range of 91 to 100% and the 50% inhibitory concentration (IC50) is under 1500 nM.

On to `N[C@@H](Cc1ccc(OCCc2cccc(C(F)(F)F)c2)cc1)C(=O)N1CCN(Cc2cccc(Cl)c2Cl)CC1` [Example 255], for which the IC50 was under 1500 nM. Also, under setting [1], the “Displacement Rate (%) (at 10 μM)” value is “+++ (+++ = 91-100)”.

Consider `N[C@@H](Cc1ccc(-c2ccc3c(c2)OCO3)cc1)C(=O)N1CCN(Cc2cccc(Cl)c2Cl)CC1` [Example 319], for which the 50% inhibitory concentration (IC50) was in the range of 1500 to 3000 nM. In addition, the “Displacement Rate (%) (at 10 μM)” value under setting [1] was “++ (++ = 71-90)”.

As to `N[C@@H](Cc1ccc(OCc2ccccc2)cc1)C(=O)N1CCN(Cc2ccc(Cl)c([N+](=O)[O-])c2)CC1` [Example 114], the inhibition at 10 µM is 71 to 90% and the IC50 is over 3000 nM.

On to `N[C@@H](Cc1ccc(OCc2ccccc2)cc1)C(=O)N1CCN(C2CCN(Cc3ccccc3)CC2)CC1` [Example 155], for which the IC50 was over 3000 nM. Moreover, under setting [1], the inhibition at 10 µM is 35 to 70%.

Regarding `N[C@@H](Cc1ccc(OCc2ccccc2)cc1)C(=O)N1CCCN(Cc2c(F)cccc2Cl)CC1` [Example 58], the IC50 is over 3000 nM. The inhibition at 10 µM under setting [1] was 35 to 70%.

For `N[C@@H](Cc1ccc(OCc2cccc(Oc3ccccc3)c2)cc1)C(=O)N1CCN(Cc2cccc(Cl)c2Cl)CC1` [Example 193], the IC50 is under 1500 nM. The “Displacement Rate (%) (at 10 μM)” value under setting [1] was “+++ (+++ = 91-100)”.

With `N[C@@H](Cc1ccc(OCc2ccccc2)cc1)C(=O)N1CCCN(Cc2ccc(F)cc2)CC1` [Example 78], the IC50 was over 3000 nM. Moreover, under setting [1], the inhibition at 10 µM lay within 35 to 70%.

For `CCCCOc1ccc(COc2ccc(C[C@H](N)C(=O)N3CCN(Cc4cccc(Cl)c4Cl)CC3)cc2)cc1` [Example 230], the half-maximal inhibitory concentration (IC50) was in the range of 1500 to 3000 nM. In addition, the “Displacement Rate (%) (at 10 μM)” value under setting [1] is given as “++ (++ = 71-90)”.

For `N[C@@H](Cc1ccc(OCc2cc(Cl)ccc2Cl)cc1)C(=O)N1CCN(Cc2cccc(Cl)c2Cl)CC1` [Example 212], the IC50 was under 1500 nM. Besides, under setting [1], the “Displacement Rate (%) (at 10 μM)” value is “+++ (+++ = 91-100)”.

For `N[C@@H](Cc1ccc(OCCc2ccccc2-c2ccccc2)cc1)C(=O)N1CCN(Cc2cccc(Cl)c2Cl)CC1` [Example 253], the IC50 was under 1500 nM. Also, the “Displacement Rate (%) (at 10 μM)” value under setting [1] was “+++ (+++ = 91-100)”.

`COc1ccc(CCOc2ccc(C[C@H](N)C(=O)N3CCN(Cc4cccc(Cl)c4Cl)CC3)cc2)cc1` [Example 254]: the IC50 was under 1500 nM. Besides, under setting [1], the “Displacement Rate (%) (at 10 μM)” value is “+++ (+++ = 91-100)”.
